Measured values: patent US20130253048A1, “Pharmaceutical Composition for Promoting Osteogenesis Containing Axial-equatorial Aryl-oriented Furofuran-type Lignan, and Pharmaceutical Preparation, Functional Food Product, and Health Food Product Comprising Composition” (ERINA CO., INC., priority 2010, published 2013)
Marks after values point to notes of the source that are not given here.

Assays:
[1] = test system: metatarsals of mouse fetus; assay: Organ culture of mouse fetus metatarsals, calcein staining; assay type: cell-based; conditions: 0.3 μM, 7 days organ culture, versus 0.3% DMSO negative control
Experimental: Eagle's minimum essential mediums (MEM, Life Technologies Japan Corporation (Invitrogen)) was used to prepare the organ culture medium by adding 1% of penicillin/streptomycin (Life Technologies Japan Corporation (GIBCO)), 0.25% of fetal bovine serum (Sigma-Aldrich Co. LLC.), 50 μg/ml of ascorbic acid (Wako Pure Chemical Industries, Ltd.), 1 mM of β-glycerophosphoric acid (Sigma-Aldrich Co. LLC.), and 1 μg/ml of calcein (Sigma-Aldrich Co. LLC.). As a test substance, 0.3 μM of fargesin, or as a control, 0.3% of DMSO (final cone., Wako Pure Chemical Industries, Ltd.) was added to the organ culture medium. Fargesin was used the same solution prepared in Example 1 containing 0.3% DMSO as the final concentration.
On 15 of pregnancy, mouse fetuses were took from pregnant female ICR mice (Japan SLC, Inc.) by Caesarean operation (E15.5) from the 15th days of a pregnant ICR female mouse by Caesarean section. Left and right metatarsals of the fetus were excised to be placed into the organ culture medium. The organ culture was performed under the conditions of 5% CO2 at 37 degree centigrade for 7 days to observe the effect on long axis direction.
The long axis of the bone grows depending on that of epiphyseal cartilage existing between an epiphysis and a shaft. […] Then, calcification was occurred from the occification center (ossification). […]

[2] = test system: MC3T3-E1 cells; assay: Osteoblast activation, ALP activity in MC3T3-E1; assay type: cell-based, mouse
Experimental: MC3T3-E1 cells ((IAA) the Institution of Physical and Chemical Research), osteoblast-like cell line derived from the mouse fetus cranial bone cells, were inoculated into the 96 well plate at 4,000 cells/well. As a medium, the basal medium prepared in the Example 3 supplemented with fargesin at 2 to 80 μM was used. Pre-culture was performed by using the basal medium only under the conditions of 5% CO2 and 37 degree centigrade for 3 days. After that, the conditioned medium was changed to fresh medium with fargesin; the culture was performed under the conditions of 5% CO2 and 37 degree centigrade for 3 days. On the day 4 from the culture start, the conditioned medium was changed to the fresh medium; the culture was further performed under the conditions of 5% CO2 and 37 degree centigrade for 3 days. After the termination of the culture, the following MTT test, measurement of ALP activities, and the staining were performed.
Measurement of the ALP activity, statistical processing of the data, and the observation of differentiated cells were performed as the same way as those in Example 3, except the staining of the osteoclast cells were omitted.

[3] = test system: osteopenia mouse caused by sRANKL administration; assay: Osteopenia mouse caused by sRANKL administration, femur pQCT; assay type: in vivo; conditions: for Bone density of the cancellous bone, relative value / Bone density of the cortical bone, relative value / Bone density of whole bone, relative value: RANKL group = 100.0; for Bone density of the cancellous bone / Bone density of the cortical bone / Bone density of whole bone: day 4 to 13; for Bone density of whole bone: right femur, pQCT
Experimental: C57BL/6NCrlCrlj mice (6-week-age, female) were purchased from Oriental Yeast Co., Ltd. and kept to be acclimatized under the conditions of 12 hour light/dark cycle, 23±3 degree centigrade, and humidity 55±5% for 7 days. Two mice were in a cage, and the animal bedding was changed twice a week, and all fresh animal bedding was used at all times. As the feed, CRF-1 (Oriental Yeast Co., Ltd.), and deionized water as the drinking water were freely taken.
After the acclimatization, these mice were randomly divided into 4 groups (8 mice per group), sRANKL administration group and fargesin administration groups. Fargesin administration groups had 0.2 mg/kg/day administration group (it is referred to as “Far 0.2”, hereinbelow), 2 mg/kg/day administration group (it is referred to as “Far 2” herein below), and 20 mg/kg/day administration group (it is referred to as “Far 20” herein below). sRANKL (1 mg/kg/day, i.p) was administered to all mice on the first day and the second day from test start to cause osteopenia experimentally.
From the 4th day to 13th day after the test start, distilled water or the test compounds shown in the following Table 10 were daily administered to the mice in each group.
After the administration period was finished and the experiment was completed, the femurs were removed in the same way as employed in Example 6 to be excised to evaluate the bone density. Body weight of the test animals and feed intake by the test animals were measured twice a week during the administration period.
The experiments were performed as the same as done in Example 6, right femur chosen from the obtained femurs was used for measurement of the bone density.
The whole bone density, the cancellous bone density, the cortical bone density, the boundary length of the cortical bone adventitia, the length of the cortical bone endosteum, and the bone strength were measured at the site of −0.6 mm from the growth plate of the bone (see FIG. 3A).

[4] = sRANKL-treated mice, Far 0.2: 0.2 mg/kg/day p.o.
[5] = sRANKL-treated mice, Far 2: 2 mg/kg/day p.o.
[6] = sRANKL-treated mice, Far 20: 20 mg/kg/day p.o.

With `COc1ccc([C@@H]2OC[C@H]3[C@@H]2CO[C@@H]3c2ccc3c(c2)OCO3)cc1OC` [fargesin, Fargesin] the “extension of the metatarsal in long axis direction (calcified area, calcein fluorescence)” value [1] was “extended longer vertically”, the “ALP stained image of osteoblast-like cells” value ([2]; 60 to 80 μM, MC3T3-E1) was “many osteoblast stained in blue were observed” and the activity at 2 µM ([2]; Mus musculus, 2 μM, MC3T3-E1, negative control = 100) was 82.8 ± 8%. For the same compound, the activity at 6 µM ([2]; Mus musculus, 6 μM, MC3T3-E1, negative control = 100) was 89.8 ± 9.8%, the activity at 20 µM ([2]; Mus musculus, 20 μM, MC3T3-E1, negative control = 100) was 99.8 ± 13.4% and the activity at 60 µM ([2]; Mus musculus, 60 μM, MC3T3-E1, negative control = 100) was 180 ± 31.5%. For the same compound, the activity at 80 µM ([2]; Mus musculus, 80 μM, MC3T3-E1, negative control = 100) was 167 ± 32.7%, the “Bone density of the cancellous bone, relative value” ([3]; Far 0.2: 0.2 mg/kg/day p.o.) was “(100.7)” and the “Bone density of the cortical bone, relative value” ([3]; Far 0.2: 0.2 mg/kg/day p.o.) was “(98.7)”. For the same compound, the “Bone density of whole bone, relative value” ([3]; Far 0.2: 0.2 mg/kg/day p.o.) was 99.5, the “Bone density of the cancellous bone, relative value” ([3]; Far 2: 2 mg/kg/day p.o.) was “(104.0)” and the “Bone density of the cortical bone, relative value” ([3]; Far 2: 2 mg/kg/day p.o.) was “(98.9)”. The “Bone density of whole bone, relative value” ([3]; Far 2: 2 mg/kg/day p.o.) was 99.5, the “Bone density of the cancellous bone, relative value” ([3]; Far 20: 20 mg/kg/day p.o.) was “(129.4)*” and the “Bone density of the cortical bone, relative value” ([3]; Far 20: 20 mg/kg/day p.o.) was “(98.6)”. For the same compound, the “Bone density of whole bone, relative value” ([3]; Far 20: 20 mg/kg/day p.o.) was 110, the “bone strength, Polar coordinates strength (SSI)” value ([3]; sRANKL-treated mice, 0.2 to 20 mg/kg/day p.o.) was “trend that the bone strength was improved” and the “Bone density of the cancellous bone” value [3, 4] was 261.64 ± 17.92 mg/mL. For the same compound, the “Bone density of the cortical bone” value [3, 4] was 797.40 ± 6.12 mg/mL, the “Bone density of whole bone” value [3, 4] was 484.33 ± 11.09 mg/mL and the “Bone density of the cancellous bone” value [3, 5] was 270.30 ± 20.64 mg/mL. For the same compound, the “Bone density of the cortical bone” value [3, 5] was 798.60 ± 4.56 mg/mL, the “Bone density of whole bone” value [3, 5] was 487.30 ± 16.36 mg/mL and the “Bone density of the cancellous bone” value [3, 6] was 336.25 ± 13.50 mg/mL. For the same compound, the “Bone density of the cortical bone” value [3, 6] was 796.33 ± 3.89 mg/mL and the “Bone density of whole bone” value [3, 6] was 532.69 ± 8.06 mg/mL.
